Measurements: patent US20240254138A1, “TRICYCLIC PYRIMIDINES AS CYCLIN-DEPENDENT KINASE 7 (CDK7) INHIBITORS” (JANSSEN PHARMACEUTICA NV, priority 2021, published 2024)
Where two headings read alike, the source gives them in different places.

Legend:
[1] = tested on: RNA Polymerase II Serine 5 phosphorylation (Rpb1 CTD, downstream substrate of CDK7) in A549 cells; test: Imaging-based cellular RNA PolII Ser5 phosphorylation assay in A549 cells; type: cell-based, human; conditions: wild-type CDK7, RNA PolII Ser5 phosphorylation, averaged over all measurements; for IC50: Homo sapiens, A549, A549 cells, read-out: CDK7_A549 Wild-type CDK7 (pIC50) (converted); for CDK7_A549 Wild-type CDK7 (pIC50): A549 cells
In short: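 IC50 derived by fitting % control (DMSO high, 10 μM reference low) against concentration, with Hill slope. Readout: high-content imaging of phospho-Ser5 Rpb1 CTD antibody staining in fixed, permeabilized A549 cells exposed to compound 3 h after 20 h culture in 1% FBS DMEM.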

[2] = target: CDK7/cyclinH/MAT1 trimeric complex (Homo sapiens, UniProt P50613); test: In vitro CDK7 assay, potency of irreversible covalent inhibitors (kinact/KI), coupled PK/LDH ADP readout at 340 nm; conditions: for CDK7 (20 nM enz.) (kinact, s^−1) / Ki / CDK7 (20 nM enz.) (kinact/KI, M^−1*s^−1): 20 nM enzyme; for Ki: CDK7 (20 nM enz.) (KI, μM); for kinact: read-out: CDK7 (20 nM enz.) (kinact, s^−1), 20 nM enzyme
CDK7/cyclinH/MAT1 trimeric complex, sequence (P50613 whole entry): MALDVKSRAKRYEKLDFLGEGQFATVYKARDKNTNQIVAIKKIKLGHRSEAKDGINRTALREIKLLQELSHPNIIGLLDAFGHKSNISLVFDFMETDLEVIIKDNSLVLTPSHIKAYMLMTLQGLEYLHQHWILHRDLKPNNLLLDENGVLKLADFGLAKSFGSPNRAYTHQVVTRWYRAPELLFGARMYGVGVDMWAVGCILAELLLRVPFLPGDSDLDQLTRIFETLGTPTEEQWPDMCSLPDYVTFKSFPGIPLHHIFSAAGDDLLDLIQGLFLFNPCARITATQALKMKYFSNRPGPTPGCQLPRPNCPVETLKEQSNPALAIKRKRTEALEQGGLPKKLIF
CDK7/cyclinH/MAT1 trimeric complex, sequence (P51946 whole entry partner): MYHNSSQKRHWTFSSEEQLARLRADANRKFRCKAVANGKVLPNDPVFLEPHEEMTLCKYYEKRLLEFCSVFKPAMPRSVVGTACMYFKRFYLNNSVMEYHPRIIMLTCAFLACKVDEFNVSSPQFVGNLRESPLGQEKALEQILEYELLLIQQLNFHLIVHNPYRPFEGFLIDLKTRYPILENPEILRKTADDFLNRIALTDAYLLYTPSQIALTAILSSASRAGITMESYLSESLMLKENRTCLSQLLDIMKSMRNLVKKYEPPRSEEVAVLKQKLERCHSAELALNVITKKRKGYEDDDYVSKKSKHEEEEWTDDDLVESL
CDK7/cyclinH/MAT1 trimeric complex, sequence (P51948 whole entry partner): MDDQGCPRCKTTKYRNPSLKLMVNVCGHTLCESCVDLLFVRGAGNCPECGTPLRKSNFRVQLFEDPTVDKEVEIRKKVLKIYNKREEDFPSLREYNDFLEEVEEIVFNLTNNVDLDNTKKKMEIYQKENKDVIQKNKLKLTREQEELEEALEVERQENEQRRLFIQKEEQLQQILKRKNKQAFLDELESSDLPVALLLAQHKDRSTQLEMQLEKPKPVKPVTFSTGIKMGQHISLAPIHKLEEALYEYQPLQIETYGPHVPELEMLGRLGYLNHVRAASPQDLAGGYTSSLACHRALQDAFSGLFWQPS

[3] = tested on: RNA Polymerase II Serine 5 phosphorylation in A549 cells overexpressing CDK7-mutant (C312S); test: Imaging-based cellular RNA PolII Ser5 phosphorylation assay in A549 cells overexpressing CDK7-mutant (C312S); type: cell-based, human; conditions: RNA PolII Ser5 phosphorylation, averaged over all measurements; for IC50: Homo sapiens, A549, A549 cells overexpressing CDK7-mutant (C312S), read-out: CDK7_A549 mutant hCDK7(pIC50) (converted); for CDK7_A549 mutant hCDK7(pIC50): A549 cells overexpressing CDK7-mutant (C312S)
In short: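 Readout was automated imaging of anti-phospho-Ser5 Rpb1 CTD immunofluorescence, with IC50 fitted to % control versus concentration. Cells were A549 stably overexpressing non-covalently targetable CDK7 C312S alongside wild-type, exposed to compound 3 h at 37 °C. DMSO and 10 μM reference compound served as controls.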

[4] = read-out: CDK7 (20 nM enz.) (kinact/KI, M^−1*s^−1), 20 nM enzyme
[5] = read-out: CDK7 (20 nM enz.) (kobs/[I], M^−1*s^−1), 20 nM enzyme

| Structure (SMILES) | IC50 [1] [nM] | kinact/KI [2, 4] [M⁻¹ s⁻¹] | IC50 [3] [nM] | CDK7 (20 nM enz.) (kinact, s^−1) [2] [s⁻¹] | Ki [2] [µM] | CDK7_A549 Wild-type CDK7 (pIC50) [1] | CDK7 (20 nM enz.) (kinact/KI, M^−1*s^−1) [2] [M⁻¹ s⁻¹] | CDK7_A549 mutant hCDK7(pIC50) [3] | kinact [2] [s⁻¹] | kinact/KI [2, 5] [M⁻¹ s⁻¹] |
| --- | --- | --- | --- | --- | --- | --- | --- | --- | --- | --- |
| CC#CC(=O)N1CCC(N2CC(c3cc(C#N)c4c(c3)Nc3nccc(N5CCOCC5)c3[C@@H](C)O4)C2)C1 (mixture of isomers) [Compound 493] | 120 | 397 | 5890 | – | – | – | – | – | – | – |
| C=CC(=O)N1CC[C@@H](N2CC(c3cc4c(c(C(F)(F)F)n3)OCc3c(N5CCOCC5)ccnc3N4)C2)C1 (single isomer, unassigned) [Compound 241] | 95.5 | 1380 | 10700 | 3.715e-05 | 0.0269 | – | – | – | – | – |
| C=CC(=O)N1CC(N2CCC(c3cc(Cl)c4c(c3)Nc3nccc(N5CCS(=O)(=O)CC5)c3CO4)CC2)C1 [Compound 115] | – | – | – | 5.802e-05 | 0.0486 | 6.66 | 1193.86 | <5 | – | – |
| C=CC(=O)N1CC(N2CCC(c3cc4c(c(C)n3)O[C@@H](C)c3c(C5CCOCC5)ccnc3N4)CC2)C1 (single isomer, unassigned) [Compound 415] | 1820 | 33.5 | > 10000 | – | 2.22 | – | – | – | 7.43e-05 | – |
| C=CC(=O)N1CC[C@@H](N2CC(c3cc4c(c(C(F)(F)F)c3)OCc3c(N5CCOCC5)ccnc3N4)C2)C1 (single isomer, unassigned) [Compound 240] | 55 | 1490 | 5130 | – | 0.0242 | – | – | – | 3.61e-05 | – |
| C=CC(=O)N1CC(N2CCC(c3cc(C)c4c(c3)Nc3nccc(N5CCOCC5)c3CO4)CC2)C1 [Compound 66] | – | – | – | – | – | 7.16 | – | <5 | – | 1030 |
| C#Cc1cc(C2CCN(C3CN(C(=O)C=C)C3)CC2)cc2c1OC(C)c1c(N3CCOCC3)ccnc1N2 (stereo not shown) [Compound 181] | ~20.9 | – | > 10000 | – | – | – | – | – | – | 864 |
| C=CC(=O)N1CC(N2CCC(c3cc4c(c(C(=O)NC)c3)OCc3c(C5CCOCC5)ccnc3N4)CC2)C1 [Compound 135] | 263 | 988 | ~7080 | – | 0.0578 | – | – | – | 5.71e-05 | – |
| C=CC(=O)N1CC(N2CCC(c3cc(F)c4c(c3)Nc3nccc(N5CCOCC5)c3CO4)CC2)C1 [Compound 62] | 77.6 | 2410 | > 10000 | – | 0.0266 | – | – | – | 6.42e-05 | – |
| C=CC(=O)N1CCN(C2CCN(c3cc4c(c(C)n3)OCc3c(N5CCOCC5)ccnc3N4)CC2)CC1 [Compound 391] | ~61.7 | 1100 | > 10000 | – | 0.0205 | – | – | – | 2.25e-05 | – |
| C=CC(=O)N1CC(N2CC(c3cc(C)c4c(c3)Nc3nccc(C5CCOCC5)c3[C@@H](C)O4)C2)C1 (single isomer, unassigned) [Compound 251] | 43.7 | – | > 10000 | – | – | – | – | – | – | 1110 |
| C=CC(=O)N1CC(N2CCC(c3cc(Cl)c4c(c3)Nc3nccc(C5CCOCC5)c3CO4)CC2)C1 [Compound 101] | 64.6 | – | > 10000 | – | – | – | – | – | – | 1110 |
| C=CC(=O)N1CC(N2CCC(c3cc(C)c4c(c3)Nc3nccc(C5CCOCC5)c3CO4)CC2)C1 [Compound 73] | – | – | – | – | – | 7.32 | 1301.8 | <5 | – | – |
| C=CC(=O)N1CC(N2CC(c3cc4c(c(C)n3)OC(C)c3c(N5CCOCC5)ccnc3N4)C2)C1 (stereo not shown) [Compound 264] | ~138 | 782 | > 10000 | – | 0.0439 | – | – | – | 3.44e-05 | – |
